Assay results published in patent US9326506B2, “Preparation method, agricultural composition and applications of natural brassinolide analogs” (CHENGDU NEWSUN CROPSCIENCE CO., LTD, priority 2012, dated 2016).

Tested on: rice
Assay: Low temperature assay on rice seedlings
Assay type: in vivo
Procedure: According to a low temperature assay, we measured parameters including plant height, number of leaf, area of leaf, number of tiller, weight of root at low temperature to completely determine effects of the natural brassinolide analogues on the resistance to low temperature of a plant.
The natural brassinolide analogues, BR1, BR2, BR3, BR4, BR5 and BR6, used herein, were those prepared by the method of Example 1. Respectively the analogues were dissolved into 95% (V/V) ethanol solution, and then diluted with pure water to 1 mg/L, 0.1 mg/L, 0.01 mg/L, 0.001 mg/L and 0.0001 mg/L. In addition, pure water was used as a control.
After rice seeds were disinfected by using 5% sodium hypochlorite solution treatment, they were rinsed with distilled water until their pH>7, placed into a petri dish in a dark incubator, and cultured by using water at 30° C.±2° C. for 9 days. Then respectively the nine-day-old etiolated seedlings of rice were immersed in the above solutions containing different concentrations of the natural brassinolide analogues or pure water, and cultured at the temperature of 1° C., 2° C., 3° C., 4° C. and 5° C. for 24 hr. The parameters including plant height, area of leaf and weight of root after 3, 6, 9 and 12 days and number of leaf and number of tiller after 12 days were measured.

Q: What does the source list for `CC[C@@H](C(C)C)[C@@H](O)[C@H](O)[C@@H](C)[C@H]1CCC2C3COC(=O)C4C[C@H](O)[C@H](O)C[C@]4(C)C3CC[C@@]21C` (stereo partly shown) [BR2]?
A: Height (0.01 mg/l, 3 °C, 9 days): 7.7 cm; Weight of root (0.01 mg/l, 3 °C, 9 days): 2.9 g; Area of leaf (0.01 mg/l, 3 °C, 12 days): 13.2 cm^2; Height (0.01 mg/l, 3 °C, 12 days): 7.9 cm; Number of leaf (0.01 mg/l, 3 °C, 12 days): 3; Number of tiller (0.01 mg/l, 3 °C, 12 days): 2; Weight of root (0.01 mg/l, 3 °C, 12 days): 2.9 g; Area of leaf (0.01 mg/l, 4 °C, 3 days): 10.8 cm^2; Height (0.01 mg/l, 4 °C, 3 days): 7.1 cm; Weight of root (0.01 mg/l, 4 °C, 3 days): 2.5 g; Area of leaf (0.01 mg/l, 4 °C, 6 days): 12.4 cm^2; Height (0.01 mg/l, 4 °C, 6 days): 7.5 cm; Weight of root (0.01 mg/l, 4 °C, 6 days): 2.6 g; Area of leaf (0.01 mg/l, 4 °C, 9 days): 13.2 cm^2; Height (0.01 mg/l, 4 °C, 9 days): 7.7 cm; Weight of root (0.01 mg/l, 4 °C, 9 days): 2.9 g; Area of leaf (0.01 mg/l, 4 °C, 12 days): 13.5 cm^2; Height (0.01 mg/l, 4 °C, 12 days): 7.8 cm; Number of leaf (0.01 mg/l, 4 °C, 12 days): 3; Number of tiller (0.01 mg/l, 4 °C, 12 days): 2; Weight of root (0.01 mg/l, 4 °C, 12 days): 3.0 g; Area of leaf (0.01 mg/l, 5 °C, 3 days): 10.3 cm^2; Height (0.01 mg/l, 5 °C, 3 days): 7.4 cm; Weight of root (0.01 mg/l, 5 °C, 3 days): 2.8 g; Area of leaf (0.01 mg/l, 5 °C, 6 days): 13.1 cm^2; Height (0.01 mg/l, 5 °C, 6 days): 7.6 cm; Weight of root (0.01 mg/l, 5 °C, 6 days): 3.0 g; Area of leaf (0.01 mg/l, 5 °C, 9 days): 16.4 cm^2; Height (0.01 mg/l, 5 °C, 9 days): 8 cm; Weight of root (0.01 mg/l, 5 °C, 9 days): 3.4 g; Area of leaf (0.01 mg/l, 5 °C, 12 days): 17 cm^2; Height (0.01 mg/l, 5 °C, 12 days): 8.2 cm; Number of leaf (0.01 mg/l, 5 °C, 12 days): 4; Number of tiller (0.01 mg/l, 5 °C, 12 days): 3; Weight of root (0.01 mg/l, 5 °C, 12 days): 3.9 g; Area of leaf (0.1 mg/l, 1 °C, 3 days): 10.1 cm^2; Height (0.1 mg/l, 1 °C, 3 days): 7.0 cm; Weight of root (0.1 mg/l, 1 °C, 3 days): 2.8 g; Area of leaf (0.1 mg/l, 1 °C, 6 days): 11 cm^2; Height (0.1 mg/l, 1 °C, 6 days): 7.2 cm; Weight of root (0.1 mg/l, 1 °C, 6 days): 3.0 g; Area of leaf (0.1 mg/l, 1 °C, 9 days): 12.1 cm^2; Height (0.1 mg/l, 1 °C, 9 days): 7.3 cm; Weight of root (0.1 mg/l, 1 °C, 9 days): 3.4 g; Area of leaf (0.1 mg/l, 1 °C, 12 days): 13.4 cm^2; Height (0.1 mg/l, 1 °C, 12 days): 7.4 cm; Number of leaf (0.1 mg/l, 1 °C, 12 days): 3; Number of tiller (0.1 mg/l, 1 °C, 12 days): 3; Weight of root (0.1 mg/l, 1 °C, 12 days): 3.6 g; Area of leaf (0.1 mg/l, 2 °C, 3 days): 10.4 cm^2; Height (0.1 mg/l, 2 °C, 3 days): 7.1 cm; Weight of root (0.1 mg/l, 2 °C, 3 days): 2.8 g; Area of leaf (0.1 mg/l, 2 °C, 6 days): 11.2 cm^2; Height (0.1 mg/l, 2 °C, 6 days): 7.3 cm; Weight of root (0.1 mg/l, 2 °C, 6 days): 3.0 g; Area of leaf (0.1 mg/l, 2 °C, 9 days): 12.6 cm^2; Height (0.1 mg/l, 2 °C, 9 days): 7.3 cm; Weight of root (0.1 mg/l, 2 °C, 9 days): 3.1 g; Area of leaf (0.1 mg/l, 2 °C, 12 days): 13.6 cm^2; Height (0.1 mg/l, 2 °C, 12 days): 7.4 cm; Number of leaf (0.1 mg/l, 2 °C, 12 days): 3; Number of tiller (0.1 mg/l, 2 °C, 12 days): 3; Weight of root (0.1 mg/l, 2 °C, 12 days): 3.2 g; Area of leaf (0.1 mg/l, 3 °C, 3 days): 10.5 cm^2; Height (0.1 mg/l, 3 °C, 3 days): 7.4 cm; Weight of root (0.1 mg/l, 3 °C, 3 days): 2.5 g; Area of leaf (0.1 mg/l, 3 °C, 6 days): 12 cm^2; Height (0.1 mg/l, 3 °C, 6 days): 7.4 cm; Weight of root (0.1 mg/l, 3 °C, 6 days): 2.7 g; Area of leaf (0.1 mg/l, 3 °C, 9 days): 12.6 cm^2; Height (0.1 mg/l, 3 °C, 9 days): 7.8 cm; Weight of root (0.1 mg/l, 3 °C, 9 days): 2.9 g; Area of leaf (0.1 mg/l, 3 °C, 12 days): 13.4 cm^2; Height (0.1 mg/l, 3 °C, 12 days): 7.9 cm; Number of leaf (0.1 mg/l, 3 °C, 12 days): 3; Number of tiller (0.1 mg/l, 3 °C, 12 days): 2; Weight of root (0.1 mg/l, 3 °C, 12 days): 2.9 g; Area of leaf (0.1 mg/l, 4 °C, 3 days): 10.8 cm^2; Height (0.1 mg/l, 4 °C, 3 days): 7.5 cm; Weight of root (0.1 mg/l, 4 °C, 3 days): 2.5 g; Area of leaf (0.1 mg/l, 4 °C, 6 days): 12.1 cm^2; Height (0.1 mg/l, 4 °C, 6 days): 7.5 cm; Weight of root (0.1 mg/l, 4 °C, 6 days): 2.7 g; Area of leaf (0.1 mg/l, 4 °C, 9 days): 13.4 cm^2; Height (0.1 mg/l, 4 °C, 9 days): 8 cm; Weight of root (0.1 mg/l, 4 °C, 9 days): 2.9 g; Area of leaf (0.1 mg/l, 4 °C, 12 days): 13.8 cm^2; Height (0.1 mg/l, 4 °C, 12 days): 8.1 cm; Number of leaf (0.1 mg/l, 4 °C, 12 days): 3; Number of tiller (0.1 mg/l, 4 °C, 12 days): 2; Weight of root (0.1 mg/l, 4 °C, 12 days): 3.1 g; Area of leaf (0.1 mg/l, 5 °C, 3 days): 11 cm^2; Height (0.1 mg/l, 5 °C, 3 days): 7.5 cm; Weight of root (0.1 mg/l, 5 °C, 3 days): 2.9 g; Area of leaf (0.1 mg/l, 5 °C, 6 days): 12.9 cm^2; Height (0.1 mg/l, 5 °C, 6 days): 7.6 cm; Weight of root (0.1 mg/l, 5 °C, 6 days): 3.2 g; Area of leaf (0.1 mg/l, 5 °C, 9 days): 16.8 cm^2; Height (0.1 mg/l, 5 °C, 9 days): 8.1 cm; Weight of root (0.1 mg/l, 5 °C, 9 days): 3.5 g; Area of leaf (0.1 mg/l, 5 °C, 12 days): 19 cm^2; Height (0.1 mg/l, 5 °C, 12 days): 8.3 cm; Number of leaf (0.1 mg/l, 5 °C, 12 days): 3; Number of tiller (0.1 mg/l, 5 °C, 12 days): 2; Weight of root (0.1 mg/l, 5 °C, 12 days): 4.1 g; Area of leaf (1 mg/l, 1 °C, 3 days): 10 cm^2; Height (1 mg/l, 1 °C, 3 days): 7.2 cm; Weight of root (1 mg/l, 1 °C, 3 days): 2.6 g; Area of leaf (1 mg/l, 1 °C, 6 days): 11.2 cm^2; Height (1 mg/l, 1 °C, 6 days): 7.3 cm; Weight of root (1 mg/l, 1 °C, 6 days): 3.1 g; Area of leaf (1 mg/l, 1 °C, 9 days): 12.4 cm^2; Height (1 mg/l, 1 °C, 9 days): 7.3 cm; Weight of root (1 mg/l, 1 °C, 9 days): 3.2 g; Area of leaf (1 mg/l, 1 °C, 12 days): 13 cm^2; Height (1 mg/l, 1 °C, 12 days): 7.9 cm; Number of leaf (1 mg/l, 1 °C, 12 days): 3; Number of tiller (1 mg/l, 1 °C, 12 days): 3; Weight of root (1 mg/l, 1 °C, 12 days): 3.7 g; Area of leaf (1 mg/l, 2 °C, 3 days): 10.2 cm^2; Height (1 mg/l, 2 °C, 3 days): 7.2 cm; Weight of root (1 mg/l, 2 °C, 3 days): 2.6 g; Area of leaf (1 mg/l, 2 °C, 6 days): 11.7 cm^2; Height (1 mg/l, 2 °C, 6 days): 7.2 cm; Weight of root (1 mg/l, 2 °C, 6 days): 3.0 g; Area of leaf (1 mg/l, 2 °C, 9 days): 12.6 cm^2; Height (1 mg/l, 2 °C, 9 days): 7.3 cm; Weight of root (1 mg/l, 2 °C, 9 days): 3.2 g; Area of leaf (1 mg/l, 2 °C, 12 days): 13 cm^2; Height (1 mg/l, 2 °C, 12 days): 8 cm; Number of leaf (1 mg/l, 2 °C, 12 days): 3; Number of tiller (1 mg/l, 2 °C, 12 days): 3; Weight of root (1 mg/l, 2 °C, 12 days): 3.7 g; Area of leaf (1 mg/l, 3 °C, 3 days): 10.4 cm^2; Height (1 mg/l, 3 °C, 3 days): 7.4 cm; Weight of root (1 mg/l, 3 °C, 3 days): 2.5 g; Area of leaf (1 mg/l, 3 °C, 6 days): 12 cm^2; Height (1 mg/l, 3 °C, 6 days): 7.5 cm; Weight of root (1 mg/l, 3 °C, 6 days): 2.6 g; Area of leaf (1 mg/l, 3 °C, 9 days): 12.1 cm^2; Height (1 mg/l, 3 °C, 9 days): 7.9 cm; Weight of root (1 mg/l, 3 °C, 9 days): 2.9 g; Area of leaf (1 mg/l, 3 °C, 12 days): 13.2 cm^2; Height (1 mg/l, 3 °C, 12 days): 8.1 cm; Number of leaf (1 mg/l, 3 °C, 12 days): 3; Number of tiller (1 mg/l, 3 °C, 12 days): 2; Weight of root (1 mg/l, 3 °C, 12 days): 2.9 g; Area of leaf (1 mg/l, 4 °C, 3 days): 10.9 cm^2; Height (1 mg/l, 4 °C, 3 days): 7.4 cm; Weight of root (1 mg/l, 4 °C, 3 days): 2.5 g; Area of leaf (1 mg/l, 4 °C, 6 days): 12.6 cm^2; Height (1 mg/l, 4 °C, 6 days): 7.5 cm; Weight of root (1 mg/l, 4 °C, 6 days): 2.7 g; Area of leaf (1 mg/l, 4 °C, 9 days): 13.2 cm^2; Height (1 mg/l, 4 °C, 9 days): 8.0 cm; Weight of root (1 mg/l, 4 °C, 9 days): 3.0 g; Area of leaf (1 mg/l, 4 °C, 12 days): 14 cm^2; Height (1 mg/l, 4 °C, 12 days): 8.2 cm; Number of leaf (1 mg/l, 4 °C, 12 days): 3; Number of tiller (1 mg/l, 4 °C, 12 days): 2; Weight of root (1 mg/l, 4 °C, 12 days): 3.2 g; Area of leaf (1 mg/l, 5 °C, 3 days): 11.1 cm^2; Height (1 mg/l, 5 °C, 3 days): 7.4 cm; Weight of root (1 mg/l, 5 °C, 3 days): 2.9 g; Area of leaf (1 mg/l, 5 °C, 6 days): 13.1 cm^2; Height (1 mg/l, 5 °C, 6 days): 7.7 cm; Weight of root (1 mg/l, 5 °C, 6 days): 3.5 g; Area of leaf (1 mg/l, 5 °C, 9 days): 18 cm^2; Height (1 mg/l, 5 °C, 9 days): 8.2 cm; Weight of root (1 mg/l, 5 °C, 9 days): 3.7 g; Area of leaf (1 mg/l, 5 °C, 12 days): 20 cm^2; Height (1 mg/l, 5 °C, 12 days): 8.4 cm; Number of leaf (1 mg/l, 5 °C, 12 days): 3; Number of tiller (1 mg/l, 5 °C, 12 days): 2; Weight of root (1 mg/l, 5 °C, 12 days): 4.5 g
